Counter-ions that a name gives are not always drawn.
System: rat prostatic vas deferens

With `COC(=O)[C@@H]1[C@H]2C[C@H]3c4[nH]c5ccccc5c4CCN3C[C@@H]2CC[C@@H]1O` [yohimbine, yohimbine hydrochloride] the “effect on the evoked responses” value was “no effect”.

Reference: patent publication US7326682B2 (priority 1998, dated 2008)
